{"source": "paper PMC10820528", "about": "“New Rare Triterpene Glycosides from Pacific Sun Star, Solaster pacificus, and Their Anticancer Activity” (Marine Drugs, 2023)", "key": {"[1]": {"tested_on": "human embryonic kidney HEK 293 cells", "assay": "cells", "type": "cell-based", "procedure": "(§1) We calculated the inhibiting concentration that cause death of 50% of cells (IC50) and the selectivity index (SI) of the compounds tested (Table 4).\n(§2) The human embryonic kidney HEK 293 cells (ATCC® CRL-1573™), breast cancer MDA-MB-231 cells (ATCC® HTB-26™), and colorectal carcinoma HCT 116 cells (ATCC® CCL-247™) were purchased from the American Type Culture Collection (Manassas, VA, USA). The HEK 293 and MDA-MB-231 cells were cultured in DMEM; the HCT 116 cells were cultured in the McCoy’s 5A medium at 37 °C in a humidified atmosphere containing 5% CO2. The culture media were supplemented with 10% heat-inactivated FBS and a 1% penicillin/streptomycin solution. The number of passages was carefully controlled, and contamination by Mycoplasma was monitored on a regular basis.\n(§3) Compounds 1–3, and 6–8 were dissolved in sterile dimethyl sulfoxide (DMSO), to prepare stock concentrations of 20 mM. Cells were treated with serially diluted 1–3, 6–8 (0.3–100 µM) (with the culture medium used as diluent) (the final concentration of DMSO was less than 0.5%). The vehicle control was the cells treated with an equivalent volume of DMSO (the final concentration was less than 0.5%) for all of the presented experiments.\n(§4) HEK 293 (1.0 × 10^4/200 µL), HCT 116 (1.0 × 10^4/200 µL), and MDA-MB-231 (0.8 × 10^4/200 µL) cells were seeded in a 96-well plate and incubated for 24 h at 37 °C in a CO2 incubator. […] The cells were subsequently incubated with 15 µL of the MTS reagent for 3 h. The absorbance of each well was measured at 490/630 nm on a Power Wave XS microplate reader (BioTek, Winooski, VT, USA).\n(§5) The IC50 concentration was calculated using the AAT-Bioquest® online calculator [24]. The selectivity index (SI) was calculated as described previously, using the following formula: SI = IC50 of the compounds for normal cells (HEK 293) divided by IC50 of the same compounds for the human colorectal adenocarcinoma and breast cancer (HCT 116 and MDA-MB-231) cell lines."}, "[2]": {"tested_on": "breast cancer MDA-MB-231 cells", "assay": "cells", "type": "cell-based", "procedure": "as §1, §2, §3, §4, §5"}, "[3]": {"tested_on": "human colorectal carcinoma HCT 116 cells", "assay": "Scratch (wound-healing) assay, HCT 116", "type": "cell-based", "conditions": "for suppression of migration of HCT 116 cells: 48 h, compared to control at 48 h; for reduction of migration of HCT 116 cells: 72 h of treatment, compared to control at 72 h", "from_the_text": "(§6) Metastasis is the leading cause of cancer mortality. The metastatic cascade is a multistep process in which cancer cells are […], from the primary tumor to distant parts and tissues. Migration and plasticity of cancer cells, as well as the environment such as stromal and endothelial cells, are essential in metastasis. In this study, the migration ability (invasive potential) of colorectal carcinoma HCT 116 cells and breast cancer MDA-MB-231 cells and the anti-invasive effect of compound 2 were determined by the “wound-healing”, or scratch, method.\n(§7) HCT 116 and MDA-MB-231 cells (3 × 10^5 cells/mL) were seeded in 6-well plates and grown to 80% confluence for 24 h. After removing the culture medium, the cells’ monolayer was scraped with a 200 µL sterile pipette tip, to create a straight scratch. Then, the cells were treated with compound 2 at concentrations of 0.6, 1.25, 2.5, and 5 µM and incubated for 24, 48, and 72 h. All experiments were set up in triplicate for each group. For image analysis, the cell migration into the wound area was photographed at the stages of 0, 24, 48, and 72 h through a Motic AE 20 microscope and using the ImageJ v. 1.50i software, bundled with 64-bit Java 1.6.0_24 (NIH, Bethesda, MD, USA). The cell migration distance was estimated by measuring the width of the wound, and was expressed as the percentage of each control (0 h) in relation to the mean of the wound-closure area."}, "[4]": {"tested_on": "breast cancer MDA-MB-231 cells", "assay": "Scratch (wound-healing) assay, MDA-MB-231", "type": "cell-based", "conditions": "Homo sapiens, 24 h of treatment, compared to control at 24 h, read-out: inhibition of migration of MDA-MB-231 cells", "from_the_text": "as §6\nas §7, with “1.50i software, bundled with 64-bit Java 1.6.0_24 (NIH, Bethesda, MD, USA).” left out"}, "[5]": {"tested_on": "breast cancer MDA-MB-231 cells", "assay": "Soft-agar clonogenic assay, MDA-MB-231", "type": "cell-based, human", "conditions": "14 days", "procedure": "(§8) The soft-agar clonogenic assay was applied in order to assess the effect of compound 2 on the colony formation of human colorectal carcinoma HCT 116 and breast cancer MDA-MB-231 cells. As a result, compound 2 at concentrations of 0.6, 1.25, 2.5, and 5 µM decreased the number of colonies of HCT 116 cells by 11, 24, 52, and 97%, respectively (Figure 6a,b) and MDA-MB-231 cells by 20, 39, 61, and 80%, respectively (Figure 6c,d).\n(§9) HCT 116 and MDA-MB-231 cells (2.4 × 10^4/mL) were treated with compound 2 (0.6, 1.25, 2.5, and 5 µM). Then, the cells were placed onto 0.3% BME agar containing 10% FBS, 2 mM L-glutamine, and 25 µg/mL gentamicin. The cultures were maintained at 37 °C in a 5% CO2 incubator for 14 days. The number of colonies was counted under an AE 20 Motic microscope using the ImageJ v. 1.50i software, bundled with 64-bit Java 1.6.0_24 (NIH, Bethesda, MD, USA)."}, "[6]": {"tested_on": "colorectal carcinoma HCT 116 cells", "assay": "cells", "type": "cell-based", "procedure": "We determined the cytotoxicity of compounds 1–3 and 6–8 against human embryonic kidney HEK 293, colorectal carcinoma HCT 116, and breast cancer MDA-MB-231 cells by the MTS assay, after 24 h of treatment with the compounds. We calculated the inhibiting concentration that cause death of 50% of cells (IC50) and the selectivity index (SI) of the compounds tested (Table 4).\nas §2, §3, §4, §5"}, "[7]": {"tested_on": "human colorectal carcinoma HCT 116 cells", "assay": "Soft-agar clonogenic assay, HCT 116", "type": "cell-based", "conditions": "14 days", "procedure": "as §8, §9"}, "metastatic breast cancer": {"tested_on": "metastatic breast cancer", "design": "method as in PMID 21761157", "conditions": "syngeneic murine model of metastatic breast cancer; cited from earlier work"}, "[8]": {"tested_on": "AsPC-1 human pancreatic cancer cells", "design": "method as in PMID 18837899", "conditions": "by induction of apoptosis; cited from earlier work"}, "[9]": {"tested_on": "MDA-MB-231 human breast cancer cells", "design": "method as in PMID 21741966", "conditions": "concentration- and time-dependent; cited from earlier work"}}, "data": [{"smiles": "CO[C@@H]1[C@@H](O)[C@H](O[C@@H]2[C@@H](O)[C@H](O[C@H]3[C@H](O)[C@@H](O)[C@H](O[C@H]4[C@H](O[C@H]5CC[C@]6(C)C7=C(CC[C@H]6C5(C)C)[C@]5(C)C[C@H](OC(C)=O)[C@H]([C@@](C)(O)CCC=C(C)C)[C@@]5(CO)CC7)OC[C@@H](O)[C@@H]4O)O[C@@H]3C)O[C@H](CO)[C@H]2O)OC[C@H]1O", "note": "[Compound 2, (20S)-3β-O-[3-O-methyl-β-D-xylopyranosyl-(1→3)-β-D-glucopyranosyl-(1→4)-β-D-quinovopyranosyl-(1→2)-β-D-xylopyranosyl]-16β-acetoxy,18,20-dihydroxy-5α-lanosta-8(9),24-diene]", "values": [{"measurement": "cytotoxic activity in words, HEK 293", "setting": "[1]", "result": "Moderate"}, {"measurement": "IC50", "setting": "[1]; Homo sapiens, HEK293, MTS assay, 24 h of cell incubation, mean ± SD, read-out: IC50, HEK 293", "result": "18.5 ± 2.5", "unit": "µM"}, {"measurement": "cytotoxic activity in words, MDA-MB-231", "setting": "[2]", "result": "Moderate"}, {"measurement": "IC50", "setting": "[2]; Homo sapiens, MDA-MB-231, MTS assay, 24 h of cell incubation, mean ± SD, read-out: IC50, MDA-MB-231", "result": "15.5 ± 1.6", "unit": "µM"}, {"measurement": "SI (selectivity index), MDA-MB-231", "setting": "[2]; mean IC50 against normal cells (HEK 293)/mean IC50 against MDA-MB-231, 24 h", "result": 1.2}, {"measurement": "suppression of migration of HCT 116 cells", "setting": "[3]; 0.6 µM", "result": 8, "unit": "%"}, {"measurement": "reduction of migration of HCT 116 cells", "setting": "[3]; 0.6 µM", "result": 3, "unit": "%"}, {"measurement": "suppression of migration of HCT 116 cells", "setting": "[3]; 1.25 µM", "result": 18, "unit": "%"}, {"measurement": "reduction of migration of HCT 116 cells", "setting": "[3]; 1.25 µM", "result": 3, "unit": "%"}, {"measurement": "suppression of migration of HCT 116 cells", "setting": "[3]; 2.5 µM", "result": 42, "unit": "%"}, {"measurement": "reduction of migration of HCT 116 cells", "setting": "[3]; 2.5 µM", "result": 23, "unit": "%"}, {"measurement": "suppression of migration of HCT 116 cells", "setting": "[3]; 5 µM", "result": 41, "unit": "%"}, {"measurement": "reduction of migration of HCT 116 cells", "setting": "[3]; 5 µM", "result": 41, "unit": "%"}, {"measurement": "inhibition at 0.6 µM", "setting": "[3]; Homo sapiens, HCT-116, 0.6 µM, 24 h of treatment, compared to control 24 h, read-out: inhibition of migration of HCT 116 cells", "result": 5, "unit": "%"}, {"measurement": "inhibition at 1.25 µM", "setting": "[3]; Homo sapiens, HCT-116, 1.25 µM, 24 h of treatment, compared to control 24 h, read-out: inhibition of migration of HCT 116 cells", "result": 17, "unit": "%"}, {"measurement": "inhibition at 2.5 µM", "setting": "[3]; Homo sapiens, HCT-116, 2.5 µM, 24 h of treatment, compared to control 24 h, read-out: inhibition of migration of HCT 116 cells", "result": 30, "unit": "%"}, {"measurement": "inhibition at 5 µM", "setting": "[3]; Homo sapiens, HCT-116, 5 µM, 24 h of treatment, compared to control 24 h, read-out: inhibition of migration of HCT 116 cells", "result": 37, "unit": "%"}, {"measurement": "inhibition at 5 µM", "setting": "[4]", "result": 15, "unit": "%"}, {"measurement": "decrease of the number of colonies, MDA-MB-231", "setting": "[5]; 0.6 µM", "result": 20, "unit": "%"}, {"measurement": "decrease of the number of colonies, MDA-MB-231", "setting": "[5]; 1.25 µM", "result": 39, "unit": "%"}, {"measurement": "decrease of the number of colonies, MDA-MB-231", "setting": "[5]; 2.5 µM", "result": 61, "unit": "%"}, {"measurement": "decrease of the number of colonies, MDA-MB-231", "setting": "[5]; 5 µM", "result": 80, "unit": "%"}, {"measurement": "cytotoxic activity in words, HCT 116", "setting": "[6]", "result": "Moderate"}, {"measurement": "IC50", "setting": "[6]; Homo sapiens, HCT-116, MTS assay, 24 h of cell incubation, mean ± SD, read-out: IC50, HCT 116", "result": "18.6 ± 1.4", "unit": "µM"}, {"measurement": "SI (selectivity index), HCT 116", "setting": "[6]; mean IC50 against normal cells (HEK 293)/mean IC50 against HCT 116, 24 h", "result": 1}, {"measurement": "decrease of the number of colonies, HCT 116", "setting": "[7]; 0.6 µM", "result": 11, "unit": "%"}, {"measurement": "decrease of the number of colonies, HCT 116", "setting": "[7]; 1.25 µM", "result": 24, "unit": "%"}, {"measurement": "decrease of the number of colonies, HCT 116", "setting": "[7]; 2.5 µM", "result": 52, "unit": "%"}, {"measurement": "decrease of the number of colonies, HCT 116", "setting": "[7]; 5 µM", "result": 97, "unit": "%"}]}, {"smiles": "CO[C@@H]1[C@@H](O)[C@H](O[C@@H]2[C@@H](O)[C@H](O[C@H]3[C@H](O)[C@@H](O[C@@H]4OC[C@@H](O)[C@H](O)[C@H]4O)[C@H](O[C@H]4[C@H](OC5CC[C@]6(C)[C@H]7CCC89C(=O)O[C@@](C)(CCCC(C)C)C8[C@@H](OC(C)=O)C[C@@]9(C)C7=CC[C@H]6C5(C)C)OC[C@@H](OS(=O)(=O)O)[C@@H]4O)O[C@@H]3C)OC[C@H]2O)O[C@H](CO)[C@H]1O", "note": "(some centres unmarked) [frondoside A]", "values": [{"measurement": "antimetastatic effect", "setting": "metastatic breast cancer", "result": "potent antimetastatic effect"}, {"measurement": "proliferation of AsPC-1 cells", "setting": "[8]", "result": "inhibits proliferation"}, {"measurement": "viability of MDA-MB-231 cells", "setting": "[9]", "result": "decreases the viability"}]}]}
